Test results reported in publication PMC9516332 (Frontiers in Oncology, 2022).
pIC50: −log10 of the molar value. Like-named read-outs stand apart in the source and are kept apart here.

System: 134 cancer cell lines
Experiment: Cell viability assay (ATPlite, 72 hours), IC50 on cancer cell line panel

O=C(Nc1cnn2ccc(N3CCC[C@@H]3c3cc(F)ccc3F)nc12)N1CC[C@H](O)C1 [larotrectinib]
pIC50 (Homo sapiens, MOLM-13, read-out: IC50 in cell proliferation assay, MOLM-13 cell line (FLT3 ITD)): 4.90 | pIC50 (Homo sapiens, MOLT-4, read-out: IC50 in cell proliferation assay, MOLT-4 cell line): < 4.50 | pIC50 (Homo sapiens, MV4-11, read-out: IC50 in cell proliferation assay, MV4-11 cell line (FLT3 ITD)): 4.58 | pIC50 (Homo sapiens, MeWo, read-out: IC50 in cell proliferation assay, MeWo cell line): < 4.50 | pIC50 (Homo sapiens, NCCIT, read-out: IC50 in cell proliferation assay, NCC-IT cell line): < 4.50 | pIC50 (Homo sapiens, NCI-H82, read-out: IC50 in cell proliferation assay, cell line NCI-H82): < 4.50 | pIC50 (Homo sapiens, NCI-H460, read-out: IC50 in cell proliferation assay, NCI-H460 cell line): < 4.50 | pIC50 (Homo sapiens, NCI-H661, read-out: IC50 in cell proliferation assay, NCI-H661 cell line): < 4.50 | pIC50 (Homo sapiens, NCI-H716, read-out: IC50 in cell proliferation assay, cell line NCI-H716 (FGFR2-COL14A1)): < 4.50 | pIC50 (Homo sapiens, NCI-H1650, read-out: IC50 in cell proliferation assay, NCI-H1650 cell line (EGFR exon19del)): < 4.50 | pIC50 (Homo sapiens, NCI-H1975, read-out: IC50 in cell proliferation assay, NCI-H1975 cell line (EGFR p.L858R + p.T790M)): < 4.50 | pIC50 (Homo sapiens, NCI-H2228, read-out: IC50 in cell proliferation assay, NCI-H2228 cell line (EML4-ALK)): < 4.50 | pIC50 (Homo sapiens, OVCAR-3, read-out: IC50 in cell proliferation assay, cell line OVCAR-3): < 4.50 | pIC50 (Homo sapiens, PFSK-1, read-out: IC50 in cell proliferation assay, cell line PFSK-1): < 4.50 | pIC50 (Homo sapiens, RL95-2, read-out: IC50 in cell proliferation assay, cell line RL95-2 (EGFR p.A289V)): < 4.50 | pIC50 (Homo sapiens, RPMI-7951, read-out: IC50 in cell proliferation assay, cell line RPMI-7951 (BRAF p.V600E)): < 4.50 | pIC50 (Homo sapiens, RS4-11, read-out: IC50 in cell proliferation assay, cell line RS4;11): < 4.50 | pIC50 (Homo sapiens, Rec1, read-out: IC50 in cell proliferation assay, cell line REC-1): < 4.50 | pIC50 (Homo sapiens, SHP77, read-out: IC50 in cell proliferation assay, cell line SHP-77): < 4.50 | pIC50 (Homo sapiens, SK-BR-3, read-out: IC50 in cell proliferation assay, cell line SK-BR-3 (ERBB2 amplification)): < 4.50 | pIC50 (Homo sapiens, SK-N-AS, read-out: IC50 in cell proliferation assay, cell line SK-N-AS): < 4.50 | pIC50 (Homo sapiens, SK-N-FI, read-out: IC50 in cell proliferation assay, cell line SK-N-FI): < 4.50 | pIC50 (Homo sapiens, SK-N-MC, read-out: IC50 in cell proliferation assay, cell line SK-N-MC): < 4.50 | pIC50 (Homo sapiens, SK-N-SH, read-out: IC50 in cell proliferation assay, cell line SK-N-SH (ALK p.F1174L)): < 4.50 | pIC50 (Homo sapiens, SNU-5, read-out: IC50 in cell proliferation assay, cell line SNU-5 (MET amplification)): < 4.50 | pIC50 (Homo sapiens, SNU-16, read-out: IC50 in cell proliferation assay, cell line SNU-16 (FGFR2 amplification)): < 4.50 | pIC50 (Homo sapiens, SNU-C2B, read-out: IC50 in cell proliferation assay, cell line SNU-C2B (EGFR p.R165Q)): < 4.50 | pIC50 (Homo sapiens, SU-DHL-1, read-out: IC50 in cell proliferation assay, cell line SU-DHL-1 (NPM1-ALK)): < 4.50 | pIC50 (Homo sapiens, SU-DHL-6, read-out: IC50 in cell proliferation assay, cell line SU-DHL-6): < 4.50 | pIC50 (Homo sapiens, SUP-T1, read-out: IC50 in cell proliferation assay, cell line SUP-T1): < 4.50 | pIC50 (Homo sapiens, SW48, read-out: IC50 in cell proliferation assay, cell line SW48 (EGFR p.G719S)): < 4.50 | pIC50 (Homo sapiens, SW480, read-out: IC50 in cell proliferation assay, cell line SW480): < 4.50 | pIC50 (Homo sapiens, SW626, read-out: IC50 in cell proliferation assay, cell line SW626): < 4.50 | pIC50 (Homo sapiens, SW780, read-out: IC50 in cell proliferation assay, cell line SW780 (FGFR3-BAIAP2L1)): < 4.50 | pIC50 (Homo sapiens, SW837, read-out: IC50 in cell proliferation assay, cell line SW837): < 4.50 | pIC50 (Homo sapiens, SW872, read-out: IC50 in cell proliferation assay, cell line SW872 (BRAF p.V600E)): < 4.50 | pIC50 (Homo sapiens, SW900, read-out: IC50 in cell proliferation assay, cell line SW900): < 4.50 | pIC50 (Homo sapiens, SW948, read-out: IC50 in cell proliferation assay, cell line SW948): < 4.50 | pIC50 (Homo sapiens, SW982, read-out: IC50 in cell proliferation assay, cell line SW982 (BRAF p.V600E)): < 4.50 | pIC50 (Homo sapiens, SW-620, read-out: IC50 in cell proliferation assay, cell line SW620): < 4.50 | pIC50 (Homo sapiens, T98G, read-out: IC50 in cell proliferation assay, cell line T98G): < 4.50 | pIC50 (Homo sapiens, TCC-SUP, read-out: IC50 in cell proliferation assay, cell line TCCSUP): < 4.50 | pIC50 (Homo sapiens, THP-1, read-out: IC50 in cell proliferation assay, cell line THP-1): < 4.50 | pIC50 (Homo sapiens, U2OS, read-out: IC50 in cell proliferation assay, cell line U2OS): < 4.50 | pIC50 (Homo sapiens, U-87 MG, read-out: IC50 in cell proliferation assay, cell line U-87MG ATCC): < 4.50 | pIC50 (Homo sapiens, U-118-MG, read-out: IC50 in cell proliferation assay, cell line U-118MG): < 4.50 | pIC50 (Homo sapiens, UMUC3, read-out: IC50 in cell proliferation assay, cell line UM-UC-3): < 4.50 | pIC50 (Hs766T, read-out: IC50 in cell proliferation assay, Hs 766T cell line): < 4.50 | pIC50 (L-82, read-out: IC50 in cell proliferation assay, L-82 cell line (NPM1-ALK)): < 4.50 | pIC50 (Rh30, read-out: IC50 in cell proliferation assay, cell line Rh30): < 4.50 | pIC50 (read-out: IC50 in cell proliferation assay, 11-18 cell line (EGFR p.L858R)): < 4.50 | pIC50 (read-out: IC50 in cell proliferation assay, Hs 852.T cell line): < 4.50 | pIC50 (read-out: IC50 in cell proliferation assay, JAR cell line): < 4.50 | pIC50 (read-out: IC50 in cell proliferation assay, cell line 5637): < 4.50 | pIC50 (read-out: IC50 in cell proliferation assay, cell line A-388): < 4.50 | pIC50 (read-out: IC50 in cell proliferation assay, cell line DB): < 4.50 | pIC50 (read-out: IC50 in cell proliferation assay, cell line DEL (NPM1-ALK)): < 4.50 | pIC50 (read-out: IC50 in cell proliferation assay, cell line ES-2 (BRAF p.V600E)): < 4.50 | pIC50 (read-out: IC50 in cell proliferation assay, cell line PA-1): < 4.50 | pIC50 (read-out: IC50 in cell proliferation assay, cell line PC-3): < 4.50 | pIC50 (read-out: IC50 in cell proliferation assay, cell line RD): < 4.50 | pIC50 (read-out: IC50 in cell proliferation assay, cell line RKO (BRAF p.V600E)): < 4.50 | pIC50 (read-out: IC50 in cell proliferation assay, cell line RL): < 4.50 | pIC50 (read-out: IC50 in cell proliferation assay, cell line RT-4 (FGFR3-TACC3)): < 4.50 | pIC50 (read-out: IC50 in cell proliferation assay, cell line SR (NPM1-ALK)): < 4.50 | pIC50 (read-out: IC50 in cell proliferation assay, cell line T24): < 4.50 | pIC50 (read-out: IC50 in cell proliferation assay, cell line TT (RET p.C634W)): < 4.50 | pIC50 (read-out: IC50 in cell proliferation assay, cell line VA-ES-BJ): < 4.50
